Reference: US12227509B2, “Dihydropyrazolopyrazinone derivative having MGAT2 inhibitory activity” (Shionogi & Co., Ltd., priority 2019, dated 2025)

Tests used:
[1] = Metabolism stability test (human liver microsomes); format: in vitro ADME; conditions: compound concentration 0.5 μmol/L, 37° C., 30 minutes, NADPH
Procedure: Using commercially available pooled human hepatic microsomes, the compound of the present invention was reacted for a constant time, a remaining rate was calculated by comparing a reacted sample and an unreacted sample, thereby, a degree of metabolism of the compound of the present invention in liver was assessed.
A reaction was performed (oxidative reaction) at 37° C. for 0 minute or 30 minutes in the presence of 1 mmol/L NADPH in 0.2 mL of a buffer (50 mmol/L Tris-HCl pH 7.4, 150 mmol/L potassium chloride, 10 mmol/L magnesium chloride) containing 0.5 mg protein/mL of human liver microsomes. After the reaction, 50 μL of the reaction solution was added to 100 μL of a methanol/acetonitrile=1/1 (v/v) solution, mixed and centrifuged at 3000 rpm for 15 minutes. The compound of the present invention in the supernatant was quantified by LC/MS/MS, and a remaining amount of the compound of the present invention after the reaction was calculated, letting a compound amount at 0 minute reaction time to be 100%.

recombinant human MGAT2 = recombinant human MGAT2 (Homo sapiens (Human), UniProt Q3SYC2); assay: Measurement of human MGAT2 inhibitory activity; format: biochemical; conditions: concentration exhibiting 50% enzyme inhibition; recombinant human MGAT2, 2-Oleoylglycerol/Oleoyl-CoA
Procedure: A full-length human MGAT2 gene to which a Flag-tag had been added at the N-terminal was inserted into pFastBac (from Invitrogen). A recombinant baculovirus was produced in accordance with the protocol for a Bac-to-Bac baculovirus expression system (produced by Invitrogen), and Sf-9 cells were infected therewith. The cells were collected and sonicated, and then the membrane fraction was collected through centrifugation. Western blotting analysis with an anti-Flag antibody was performed for the membrane fraction to confirm expression, and the membrane fraction was used as a recombinant human MGAT2 enzyme solution.
Solutions of the compounds of the present invention in DMSO were each aliquoted into 0.2-μL portions in a 384-well polystyrene microplate produced by Corning Incorporated, and 5 μL of an enzyme solution prepared with an assay buffer (100 mmol/L phosphate buffer (pH 7.4) containing 2 mmol/L DTT) and 5 μL of a substrate solution (100 mmol/L phosphate buffer (pH 7.4), 30 μmol/L 2-Oleoylglycerol, 10 μmol/L Oleoyl-CoA) were added thereto, and the resultant was stirred and centrifuged, and incubated in a moist chamber at room temperature for 1 hour. After enzymatic reaction, 50 μL of a quenching solution (containing 0.2 μmol/L Diolein-d5, 0.4% formic acid, and 50% isopropanol) containing Internal Standard (IS) was added to terminate the reaction, and the resultant was sealed in a plate produced by Shimadzu GLC Ltd., and then stirred and centrifuged, and measurement was performed by using an electrospray ionization method with a RapidFire360 and Agilent 6550 Q-TOF mass spectrometer. Diolein as a reaction product (P) of 2-Oleoylglycerol as the substrate and an ammonium adduct ion of the IS were detected, and the peak intensity ratio, P/IS, was calculated from the peak heights to evaluate the inhibitory activity. Inhibitory activities with/without addition of enzyme were defined as Control (+)/Control (−), respectively, and the respective % inhibitions were defined as 0% inhibition and 100% inhibition. The inhibitory activity was calculated from formula below with TIBCO Spotfire (produced by TIBCO Software Inc.)
Inhibitory activity (%)=[1−{Sample−Control (−)}/{Control (+)−Control (−)}]*100 where Sample indicates a peak intensity ratio: P/IS, when the compound of the present invention was added.

hERG (IKr) = hERG (IKr) (Homo sapiens (Human), UniProt Q12809); assay: hERG test; format: cell-based; conditions: CHO cells expressing hERG channel, pH 7.4, 10 μmol/L of test compound, read-out: % inhibition of hERG tail peak current (IKr)
Excerpt: For the purpose of assessing risk of an electrocardiogram QT interval prolongation of the compound of the present invention, effects of the compound of the present invention on delayed rectifier K^+ current (IKr), which plays an important role in the ventricular repolarization process, was studied using CHO cells expressing human ether-a-go-go related gene (hERG) channel.
After a cell was retained at a membrane potential of −80 mV by whole cell patch clamp method using an automated patch clamp system (QPatch; Sophion BIoscience A/S), IKr induced by application of a leak potential of −50 mV followed by depolarization pulse stimulation at +20 mV for 2 seconds and, further, repolarization pulse stimulation at −50 mV for 2 seconds, was recorded. […] From the recording IKr, an absolute value of the tail peak current was measured based on the current value at the resting membrane potential using analysis software (Falster Patch; Sophion Bioscience A/S). Further, the % inhibition of tail peak current for the compound of the present invention relative to the tail peak current after application of the vehicle is calculated to assess influence of the compound of the present invention on IKr.

[2] = Solubility test (1% DMSO addition, pH 6.8 artificial intestinal juice); format: physicochemical; conditions: kinetic from dmso stock, 16 hours at 25° C.
Procedure: The solubility of the compound of the present invention was determined under 1% DMSO addition conditions. 10 mmol/L solution of the compound was prepared with DMSO, and 6 μL of the solution of the compound of the present invention was added to 594 μL of pH 6.8 artificial intestinal juice (118 mL of 0.2 mol/L NaOH test solution and water were added to 250 mL of 0.2 mol/L potassium dihydrogen phosphate test solution to reach 1000 mL). The mixture was left standing for 16 hours at 25° C., and the mixture was vacuum-filtered. The filtrate was two-fold diluted with methanol/water=1/1 (V/V), and the compound concentration in the filtrate was measured with HPLC or LC/MS/MS by the absolute calibration method. The dilution concentration and the dilution solvent were changed as necessary.

Sequence of recombinant human MGAT2 (Q3SYC2 whole entry): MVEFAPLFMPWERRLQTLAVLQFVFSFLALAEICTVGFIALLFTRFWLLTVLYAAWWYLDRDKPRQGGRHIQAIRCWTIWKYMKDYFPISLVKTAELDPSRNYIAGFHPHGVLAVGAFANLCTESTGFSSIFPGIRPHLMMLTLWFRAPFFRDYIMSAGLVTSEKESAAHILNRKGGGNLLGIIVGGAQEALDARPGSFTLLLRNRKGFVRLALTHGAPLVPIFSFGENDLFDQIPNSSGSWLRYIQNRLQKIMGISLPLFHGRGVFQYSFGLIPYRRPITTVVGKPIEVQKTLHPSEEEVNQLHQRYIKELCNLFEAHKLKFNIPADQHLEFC
Sequence of hERG (IKr) (Q12809 whole entry): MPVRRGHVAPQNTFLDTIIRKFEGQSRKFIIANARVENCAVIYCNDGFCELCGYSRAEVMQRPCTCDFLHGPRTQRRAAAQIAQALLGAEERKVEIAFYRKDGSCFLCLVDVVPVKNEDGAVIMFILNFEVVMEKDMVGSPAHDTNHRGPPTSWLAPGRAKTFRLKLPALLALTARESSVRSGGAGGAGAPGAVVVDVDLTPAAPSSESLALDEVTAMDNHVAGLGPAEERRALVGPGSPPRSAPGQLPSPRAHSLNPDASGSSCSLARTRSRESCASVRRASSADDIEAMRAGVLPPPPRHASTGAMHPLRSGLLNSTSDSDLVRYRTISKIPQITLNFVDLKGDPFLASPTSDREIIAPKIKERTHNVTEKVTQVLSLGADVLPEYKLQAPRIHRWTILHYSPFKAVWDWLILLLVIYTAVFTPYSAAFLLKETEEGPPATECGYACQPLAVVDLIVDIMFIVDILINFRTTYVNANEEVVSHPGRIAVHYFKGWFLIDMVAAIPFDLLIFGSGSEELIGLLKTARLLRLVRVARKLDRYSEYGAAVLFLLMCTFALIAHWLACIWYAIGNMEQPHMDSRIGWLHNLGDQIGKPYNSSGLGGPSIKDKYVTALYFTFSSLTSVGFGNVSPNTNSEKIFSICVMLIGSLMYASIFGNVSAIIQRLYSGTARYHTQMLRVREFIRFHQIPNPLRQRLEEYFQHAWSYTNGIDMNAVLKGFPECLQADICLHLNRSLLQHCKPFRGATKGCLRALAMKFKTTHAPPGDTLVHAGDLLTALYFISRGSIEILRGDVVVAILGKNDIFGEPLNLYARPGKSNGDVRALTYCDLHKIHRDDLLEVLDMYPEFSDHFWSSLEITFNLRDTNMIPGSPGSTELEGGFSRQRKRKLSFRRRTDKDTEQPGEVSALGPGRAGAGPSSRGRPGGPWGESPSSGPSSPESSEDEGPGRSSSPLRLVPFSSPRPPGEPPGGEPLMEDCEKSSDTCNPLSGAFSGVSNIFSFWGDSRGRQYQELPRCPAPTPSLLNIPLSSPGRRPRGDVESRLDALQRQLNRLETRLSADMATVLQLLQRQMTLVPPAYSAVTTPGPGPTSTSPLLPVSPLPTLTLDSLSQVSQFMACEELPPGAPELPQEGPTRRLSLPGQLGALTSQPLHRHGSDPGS

IC50 (recombinant human MGAT2) [nM] | SMILES | also measured
1.93 | N#Cc1ccc(-c2nn3c(c2NC(=O)c2ccno2)C(=O)N[C@@]2(CCc4cc(OCC(F)(F)F)ccc42)C3)nc1 [Compound I-13] | Remaining rate [1]: 76%
– | CS(=O)(=O)CC(=O)Nc1c(-c2ccc(F)cc2)nn2c1C(=O)N[C@]1(CCc3cc(OCC(F)(F)F)ccc31)C2 [Compound I-79] | Remaining rate [1]: 77.2%; inhibition at 10 min, 10 μmol/L (hERG (IKr)): 25.5%; solubility at 16 h [2]: > 50 µM
1.41 | CS(=O)(=O)CC(=O)Nc1c(-c2ccc(F)cc2)nn2c1C(=O)NC1(CN(c3ccc(C(F)(F)F)cc3)C1)C2 [Compound I-61] | Remaining rate [1]: 95.6%
10 | CS(=O)(=O)CC(=O)Nc1c(-c2ccc(F)cc2)nn2c1C(=O)N[C@@]1(CCc3cc(F)cc(F)c31)C2 [Compound I-129] | –
2.77 | CCS(=O)(=O)CC(=O)Nc1c(-c2ccc(C)cn2)nn2c1C(=O)N[C@@]1(CCc3cc(OCC(F)(F)F)ccc31)C2 [Compound I-127] | –
13.4 | Cc1ccc(-c2nn3c(c2NC(=O)C2CS(=O)(=O)C2)C(=O)N[C@@]2(CCc4cc(OCC(F)(F)F)ccc42)C3)nc1 [Compound I-44] | –
5.88 | COCOc1ccc2c(c1)CCC21Cn2nc(-c3ccc(C#N)cn3)c(NC(=O)CS(C)(=O)=O)c2C(=O)N1 (stereo not shown) [Compound I-54] | –
1.47 | Cc1ccc(-c2nn3c(c2NC(=O)CS(C)(=O)=O)C(=O)N[C@]2(CCc4cc(OCCCC(F)(F)F)ccc42)C3)nc1 [Compound I-75] | –
1.71 | C[S@](=N)(=O)CC(=O)Nc1c(-c2cc(F)c(F)c(F)c2)nn2c1C(=O)N[C@@]1(CCc3cc(OCC(F)(F)F)ccc31)C2 (single isomer, unassigned) [Compound I-105] | –
1.19 | Cc1cc(-c2nn3c(c2NC(=O)CS(C)(=O)=O)C(=O)N[C@@]2(CCc4cc(OCC(F)(F)F)ccc42)C3)ccc1F [Compound I-32] | –
0.527 | CS(=O)(=O)CC(=O)Nc1c(-c2ccc(Cl)cn2)nn2c1C(=O)N[C@@]1(CCc3cc(OCC(F)(F)F)ccc31)C2 [Compound I-60] | –
22.5 | N#Cc1ccc(-c2nn3c(c2NC(=O)CC(F)(F)F)C(=O)N[C@]2(CCc4cc(OCC(F)(F)F)ccc42)C3)nc1 [Compound I-9] | –
1.09 | CNS(=O)(=O)CC(=O)Nc1c(-c2ccc(C)cn2)nn2c1C(=O)N[C@@]1(CCc3cc(OCC(F)(F)F)ccc31)C2 [Compound I-45] | –
3.22 | CCOc1ccc2c(c1)OCC[C@@]21Cn2nc(-c3ccc(F)c(F)c3)c(NC(=O)CS(C)(=O)=O)c2C(=O)N1 [Compound I-135] | –
32.2 | Cc1cc(F)ccc1-c1nn2c(c1NC(=O)CS(C)(=O)=O)C(=O)N[C@@]1(CCc3cc(OCC(F)(F)F)ccc31)C2 [Compound I-35] | –
2.82 | CS(=N)(=O)CC(=O)Nc1c(-c2ccc(Cl)c(F)c2)nn2c1C(=O)N[C@@]1(CCc3cc(OCC(F)(F)F)ccc31)C2 (stereo partly shown) [Compound I-73] | –
1.19 | C[S@](=N)(=O)CC(=O)Nc1c(-c2ccc(F)c(Cl)c2)nn2c1C(=O)N[C@@]1(CCc3cc(OCC(F)(F)F)ccc31)C2 (single isomer, unassigned) [Compound I-107] | –
1.37 | CS(=O)(=O)CC(=O)Nc1c(-c2ccc(C(F)F)cc2)nn2c1C(=O)N[C@@]1(CCc3cc(OCC(F)(F)F)ccc31)C2 [Compound I-24] | –
1.48 | CCCCCc1nn2c(c1NC(=O)CS(C)(=O)=O)C(=O)N[C@]1(CCc3cc(OCC(F)(F)F)ccc31)C2 [Compound I-95] | –
1.04 | CNS(=O)(=O)CC(=O)Nc1c(-c2ccc(C)cn2)nn2c1C(=O)N[C@]1(CCc3cc(OCC(F)(F)F)ccc31)C2 [Compound I-41] | –
0.671 | CS(=O)(=O)CC(=O)Nc1c(-c2ccc(F)c(F)c2)nn2c1C(=O)N[C@@]1(CCOc3cc(OCC(F)(F)F)ccc31)C2 [Compound I-67] | –
368 | Cc1ccc(-c2nn3c(c2NC(=O)CC(F)(F)F)C(=O)N[C@@]2(CCc4cc(OCC(F)(F)F)ccc42)C3)nc1 [Compound I-43] | –
1.06 | Cc1ccc(-c2nn3c(c2NC(=O)CS(C)(=O)=O)C(=O)N[C@@]2(CCc4cc(OCCCC(F)(F)F)ccc42)C3)nc1 [Compound I-74] | –
1.36 | Cc1c(F)cc(-c2nn3c(c2NC(=O)CS(C)(=O)=O)C(=O)N[C@]2(CCc4cc(OCC(F)(F)F)ccc42)C3)cc1F [Compound I-101] | –
3.1 | CCCCCc1nn2c(c1NC(=O)CS(C)(=O)=O)C(=O)N[C@]1(CCOc3cc(OCC(F)(F)F)ccc31)C2 [Compound I-114] | –
1.02 | N#Cc1ccc(-c2nn3c(c2NC(=O)c2ccno2)C(=O)N[C@]2(CCc4cc(OCC(F)(F)F)ccc42)C3)nc1 [Compound I-8] | –
3.1 | CCOc1ccc2c(c1)OCC[C@]21Cn2nc(-c3ccc(F)cc3)c(NC(=O)CS(C)(=O)=O)c2C(=O)N1 [Compound I-132] | –
